From patent publication US8957074B2 (Novartis AG, priority 2010, dated 2015)
Where two headings read alike, the source gives them in different places.

Columns and labels:
CDK4/cyclin D1 = CDK4/cyclin D1 (Homo sapiens (Human), UniProt P11802); assay: CDK4/cyclin D1 enzymatic activity assay (TR-FRET, phosphorylation of pRb at Ser780); type: biochemical
Procedure: CDK4/Cyclin D1 Enzymatic Activity Assay
An assay for monitoring CDK4/cyclin D1-catalyzed phosphorylation of pRb at the Ser780 site was performed using TR-FRET in a 384-well format, and was used for IC50 determination and kinetic analysis. […] 3 μM ATP was added last to initiate the reaction. The reaction was quenched with 10 μL of 240 mM EDTA-Na (pH 8.0) after 60 min incubation at 22° C.
Human CDK4/cyclin D1 was expressed in Sf21 cells via baculovirus infection.

CDK1/cyclin B = CDK1/cyclin B (Homo sapiens (Human), UniProt P06493); assay: CDK1/cyclin B enzymatic activity assay (IMAP-FP); type: biochemical; conditions: 100 nM Tamra Histone-H1 peptide, 20 μM ATP, 120 min at room temperature, read-out: Biochemical CDK1 enzyme IC50
CDK1/cyclin B, sequence (P06493 whole entry, species assumed): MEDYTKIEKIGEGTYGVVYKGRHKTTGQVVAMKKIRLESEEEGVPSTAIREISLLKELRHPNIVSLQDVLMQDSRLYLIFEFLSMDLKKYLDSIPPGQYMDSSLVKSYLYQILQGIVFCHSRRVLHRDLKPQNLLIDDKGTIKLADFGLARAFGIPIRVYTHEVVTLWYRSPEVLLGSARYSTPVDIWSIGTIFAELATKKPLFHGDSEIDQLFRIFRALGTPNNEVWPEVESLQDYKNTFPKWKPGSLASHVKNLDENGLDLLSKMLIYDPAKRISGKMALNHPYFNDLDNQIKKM
CDK1/cyclin B, sequence (P14635 whole entry partner, species assumed): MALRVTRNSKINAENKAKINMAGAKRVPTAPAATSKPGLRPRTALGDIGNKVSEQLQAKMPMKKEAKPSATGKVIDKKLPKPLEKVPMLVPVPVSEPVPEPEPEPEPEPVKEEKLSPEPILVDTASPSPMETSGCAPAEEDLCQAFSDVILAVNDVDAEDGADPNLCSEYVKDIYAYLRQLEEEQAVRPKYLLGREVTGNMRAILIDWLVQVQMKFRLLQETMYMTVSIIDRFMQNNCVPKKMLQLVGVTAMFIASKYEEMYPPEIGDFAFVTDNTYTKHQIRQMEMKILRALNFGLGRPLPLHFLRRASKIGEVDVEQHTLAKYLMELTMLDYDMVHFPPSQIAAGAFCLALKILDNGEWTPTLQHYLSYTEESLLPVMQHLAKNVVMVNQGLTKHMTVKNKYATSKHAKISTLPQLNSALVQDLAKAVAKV
From the text: CDK1/Cyclin B Enzymatic Activity Assay
A 384-well microtiter IMAP-FP™ (Molecular Devices Trade Mark Technology) endpoint assay was used for CDK1/cyclin B kinase activity measurements. The same assay was used for IC50 determination of small molecule inhibitors.

[1] = system: phosphorylation of pRb at the Ser780 site in JeKo-1 mantle cell lymphoma cells; assay: CDK4 cellular assay: ELISA of pRb phosphorylation at Ser780 in JeKo-1 cells; type: cell-based
From the text: Cell-based assay measuring phosphorylation levels of pRb at the Ser780 site using an enzyme-linked immunosorbent assay (ELISA) method (Table 6). JeKo-1, a mantle-cell lymphoma cell line, was selected for use in this assay due to its known translocation and subsequent overexpression of cyclin D1. [Ref: Amin, H. M.; McDonnell, T. J.; Medeiros, L. J.; Rassidakis, G. Z.; Leventaki, V.; O'Connor, S. L.; Keating, M. J.; Lai, R. Characterization of 4 mantle cell lymphoma cell lines—Establishment of an in vitro study model. Arch. Pathol. Lab.
Cells were allowed to adhere overnight. […] 10 μL of the dilution were then transferred to the cell culture plate, resulting in a final concentration range of 10 μM to 2 nM. The incubation was carried out at 37° C. with 5% CO2. All compounds were tested in triplicates at each concentration. […] The plates were placed at 4° C. with vigorous shaking for 5 min to lyse the cells. The resulting lysates contained approximately 1 μg/μL of protein.
Plates were incubated overnight at 4° C. with rocking. […] After shaking for 10 minutes, the Superblock solution was replaced with fresh Superblock and plates were incubated on a shaker for an additional 50 min. After blocking, 30 μL of JeKo-1 cell lysate, containing approximately 10 μg total protein, were added to wells in triplicate. […] For all incubation steps, plates were covered with Uniseal plate sealers. […] Next, 50 μL of a 1:2500 dilution of donkey-anti-rabbit HRP (Promega catalog no. W401B) in PBS/10% Superblock were added, and plates were incubated for 30 min at room temperature on a shaker. Plates were again washed as described above. […] After incubation, 50 μL 2 M sulfuric acid were added to plates to top the reaction, and absorbance was determined on a SpectraMax (Molecular Devices, Sunnydale, Calif.) within 15 minutes at 450 nm. All washes were performed using a Bio-Tek plate washer.
The Total Rb ELISA kit (Invitrogen catalog no. KH00011) was used to determine the levels of total pRb. This kit uses wells precoated with a proprietary total pRb antibody for capture. All reagents listed, with the exception of cell lysate, were included in the kit. The nature of the antibodies used for capture and detection was labeled as proprietary and not disclosed. 10 μg of cell lysate was loaded into the wells and volume adjusted to 50 μL with standard dilution buffer. Plates were sealed with film included in the kit and incubated for 2 h at room temperature on a shaker. Plates are then manually washed three times with 250 μL wash buffer. 50 μL of proprietary primary antibody (pre-conjugated to biotin) was added to wells and incubated for 1 h at room temperature on a shaker. Then plates were again washed as noted above. The secondary antibody (HRP pre-conjugated to Streptavidin) was diluted 1:100 in Streptavidin-HRP diluent buffer and 50 μL was added to each well. Plates were then incubated for 30 min. Afterwards, plates were washed four times with buffer as outlined above. Finally, 50 μL stabilized Chromogen was added per well and plates were incubated for 15 min, at which point 50 μL of stop solution was added. Plates were then read on a Spectramax at 450 nm.
The total pRb levels were then used to adjust the p-pRb % inhibition values to account for any loss of signal due to the absence of the pRb protein itself, and the IC50 values obtained from the adjusted % inhibitions represent normalized cellular p-pRb IC50.

[2] = 0.3 nM CDK4/cyclin D1, 150 nM biotin-pRb (773-924), 3 μM ATP, 60 min at 22° C., read-out: Biochemical CDK4 enzyme IC50
[3] = Homo sapiens, JeKo-1, JeKo-1 cells, p-pRb % inhibition adjusted with total pRb levels, read-out: Normalized cellular ppRb inhibition IC50
[4] = Homo sapiens, JeKo-1, JeKo-1 cells, p-pRb Ser780 ELISA, non-normalized, read-out: Cellular ppRb inhibition IC50
[5] = Homo sapiens, JeKo-1 cells, p-pRb % inhibition adjusted with total pRb levels, read-out: Normalized cellular ppRb inhibition IC50
[6] = Homo sapiens, JeKo-1 cells, p-pRb Ser780 ELISA, non-normalized, read-out: Cellular ppRb inhibition IC50

CDK4/cyclin D1, sequence (P11802 whole entry): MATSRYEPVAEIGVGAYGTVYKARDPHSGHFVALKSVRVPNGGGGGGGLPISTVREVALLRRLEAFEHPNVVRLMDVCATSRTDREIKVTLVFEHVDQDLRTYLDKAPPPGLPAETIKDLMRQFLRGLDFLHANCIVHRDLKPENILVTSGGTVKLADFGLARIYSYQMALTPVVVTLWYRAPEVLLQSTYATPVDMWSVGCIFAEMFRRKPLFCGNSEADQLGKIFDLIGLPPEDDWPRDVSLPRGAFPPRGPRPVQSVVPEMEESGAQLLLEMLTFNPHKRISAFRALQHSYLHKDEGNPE
CDK4/cyclin D1, sequence (P24385 whole entry partner): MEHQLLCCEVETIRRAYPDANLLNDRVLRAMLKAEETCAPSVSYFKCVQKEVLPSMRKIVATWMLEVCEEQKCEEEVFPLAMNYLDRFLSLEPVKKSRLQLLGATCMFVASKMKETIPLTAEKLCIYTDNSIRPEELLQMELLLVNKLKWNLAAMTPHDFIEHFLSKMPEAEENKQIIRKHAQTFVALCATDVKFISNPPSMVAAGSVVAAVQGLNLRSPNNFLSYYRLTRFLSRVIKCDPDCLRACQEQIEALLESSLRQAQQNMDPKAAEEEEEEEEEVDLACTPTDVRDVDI

`CNC(=O)c1cc2cnc(Nc3ccc(C(=O)N4C[C@@H]5C[C@H]4CN5)cn3)nc2n1C1CCCC1` [Example 24, 7-Cyclopentyl-2-[5-((S,S)-2,5-diaza-bicyclo[2.2.1]heptane-2-carbonyl)-pyridin-2-ylamino]-7H-pyrrolo[2,3-d]pyrimidine-6-carboxylic acid methylamide] was tested, and the IC50 (CDK4/cyclin D1; [2]) was 0.049 µM, the IC50 (CDK1/cyclin B; […] CDK1/cyclin B) was > 15 µM and the IC50 ([1]; JeKo-1 cells, p-pRb % inhibition adjusted with total pRb levels, read-out: Normalized cellular ppRb inhibition IC50) was 0.272 µM. The IC50 ([1]; JeKo-1 cells, p-pRb Ser780 ELISA, non-normalized, read-out: Cellular ppRb inhibition IC50) was 0.266 µM.
`CN(C)C(=O)c1cc2cnc(Nc3ccc(N4C[C@H]5CNC[C@H]5C4=O)cn3)nc2n1C1CCCC1` [Example 86, 7-cyclopentyl-N,N-dimethyl-2-(5-((3aR,6aS)-1-oxohexahydropyrrolo[3,4-c]pyrrol-2(1H)-yl)pyridin-2-ylamino)-7H-pyrrolo[2,3-d]pyrimidine-6-carboxamide] showed an IC50 (CDK4/cyclin D1; [2]) of 0.005 to 0.006 µM, an IC50 (CDK1/cyclin B; […] CDK1/cyclin B) of 20.6 µM and an IC50 [1, 3] of 0.013 to 0.014 µM. For the same compound, the IC50 [1, 4] was 0.008 to 0.017 µM.
With `CN(C)C(=O)c1cc2cnc(Nc3ccc(C(=O)N4CC5CCC4C5O)cn3)nc2n1C1CCCC1` (stereo not drawn) [Example 26] the IC50 (CDK4/cyclin D1; [2]) was 0.038 µM, the IC50 (CDK1/cyclin B; […] CDK1/cyclin B) was > 15 µM and the IC50 [1, 5] was 0.388 µM. For the same compound, the IC50 [1, 6] was 0.325 µM.
`CN(C)C(=O)c1cc2cnc(Nc3ccc(N4C(=O)CN5CCC4CC5)cn3)nc2n1C1CCCCCC1` [Example 97, 7-cycloheptyl-N,N-dimethyl-2-(5-(3-oxo-1,4-diazabicyclo[3.2.2]nonan-4-yl)pyridin-2-ylamino)-7H-pyrrolo[2,3-d]pyrimidine-6-carboxamide] was tested, and the IC50 (CDK4/cyclin D1; [2]) was 0.051 µM, the IC50 (CDK1/cyclin B; 0.25 nM CDK1/cyclin B) was > 15 µM and the IC50 ([1]; Homo sapiens, JeKo-1, read-out: Cellular ppRb inhibition IC50) was 0.066 µM. The IC50 ([1]; Homo sapiens, JeKo-1, read-out: Normalized cellular ppRb inhibition IC50) was 0.145 µM.
`CN(C)C(=O)c1cc2cnc(Nc3ccc(C(=O)N4CCN5CCC4CC5)cn3)nc2n1C1CCCC1` [Example 48, 7-Cyclopentyl-2-[5-(1,4-diaza-bicyclo[3.2.2]nonane-4-carbonyl)-pyridin-2-ylamino]-7H-pyrrolo[2,3-d]pyrimidine-6-carboxylic acid dimethylamide] was tested, and the IC50 (CDK4/cyclin D1; [2]) was 0.024 µM, the IC50 (CDK1/cyclin B; […] CDK1/cyclin B) was > 15 µM and the IC50 [1, 5] was 0.229 µM. For the same compound, the IC50 [1, 6] was 0.152 µM.
In the case of `CN(C)C(=O)c1cc2cnc(Nc3ccc(C(=O)N4CCN5CCC[C@@H]5C4)cn3)nc2n1C1CCCC1` [Example 21, 7-Cyclopentyl-2-[5-((R)-hexahydro-pyrrolo[1,2-a]pyrazine-2-carbonyl)-pyridin-2-ylamino]-7H-pyrrolo[2,3-d]pyrimidine-6-carboxylic acid dimethylamide], the IC50 (CDK4/cyclin D1; [2]) is reported as 0.047 µM, the IC50 (CDK1/cyclin B; […] CDK1/cyclin B) is reported as > 15 µM and the IC50 [1, 3] is reported as 0.401 µM. The IC50 [1, 4] was 0.187 µM.
`CN(C)C(=O)c1cc2cnc(Nc3ccc(C(=O)N4CC5CCC(C4)N5)cn3)nc2n1C1CCCC1` [Example 18, 7-Cyclopentyl-2-[5-(3,8-diaza-bicyclo[3.2.1]octane-3-carbonyl)-pyridin-2-ylamino]-7H-pyrrolo[2,3-d]pyrimidine-6-carboxylic acid dimethylamide] showed an IC50 (CDK4/cyclin D1) of 0.008 to 0.024 µM, an IC50 (CDK1/cyclin B; […] CDK1/cyclin B) of 13.2 µM and an IC50 [1, 3] of 0.026 to 0.09 µM. It also gave an IC50 [1, 4] of 0.012 to 0.037 µM.
In the case of `CN(C)C(=O)c1cc2cnc(Nc3ccc(C(=O)N4CC5CC5(N(C)C)C4)cn3)nc2n1C1CCCC1` (stereo not drawn) [Example 17, 7-Cyclopentyl-2-[5-(1-dimethylamino-3-aza-bicyclo[3.1.0]hexane-3-carbonyl)-pyridin-2-ylamino]-7H-pyrrolo[2,3-d]pyrimidine-6-carboxylic acid dimethylamide], the IC50 (CDK4/cyclin D1; [2]) is reported as 0.065 µM, the IC50 (CDK1/cyclin B; […] CDK1/cyclin B) is reported as > 15 µM and the IC50 [1, 5] is reported as 0.643 µM. The IC50 [1, 6] was 0.281 µM.
For `CN(C)C(=O)c1cc2cnc(Nc3ccc(N4CC5(CCCNCC5)OC4=O)cn3)nc2n1C1CCCC1` (stereo not drawn) [Example 103, 7-cyclopentyl-N,N-dimethyl-2-(5-(2-oxo-1-oxa-3,8-diazaspiro[4.6]undecan-3-yl)pyridin-2-ylamino)-7H-pyrrolo[2,3-d]pyrimidine-6-carboxamide], the IC50 (CDK4/cyclin D1; [2]) was 0.017 µM, the IC50 (CDK1/cyclin B; […] CDK1/cyclin B) was > 15 µM and the IC50 [1, 5] was 0.064 to 0.169 µM. For the same compound, the IC50 [1, 6] was 0.024 to 0.072 µM.
`CN(C)C(=O)c1cc2cnc(Nc3ccc(N4CCN5CCCCC5C4=O)cn3)nc2n1C1CCCC1` (stereo not drawn) [Example 99, 7-Cyclopentyl-2-[5-(1-oxo-octahydro-pyrido[1,2-a]pyrazin-2-yl)-pyridin-2-ylamino]-7H-pyrrolo[2,3-d]pyrimidine-6-carboxylic acid dimethylamide] was tested, and the IC50 (CDK4/cyclin D1; [2]) was 0.071 µM, the IC50 (CDK1/cyclin B; […] CDK1/cyclin B) was > 15 µM and the IC50 [1, 3] was 0.618 µM. For the same compound, the IC50 [1, 4] was 0.463 µM.
With `CN(C)C(=O)c1cc2cnc(Nc3ccc(N4CCN5CCC[C@H]5C4=O)cn3)nc2n1C1CCCC1` [Example 146] the IC50 (CDK4/cyclin D1; [2]) was 0.619 µM, the IC50 (CDK1/cyclin B; […] CDK1/cyclin B) was > 15 µM and the IC50 [1, 3] was 2.9 µM. The IC50 [1, 4] was 2.7 µM.
`CN(C)C(=O)c1cc2cnc(Nc3ccc(N4C[C@H]5CNC[C@H]5CC4=O)cn3)nc2n1C1CCCCCC1` (stereo in doubt) [Example 88, 7-cycloheptyl-N,N-dimethyl-2-(5-(cis-6-oxotetrahydro-1H-pyrrolo[3,4-c]pyridin-5(6H, 7H, 7a H)-yl)pyridin-2-ylamino)-7H-pyrrolo[2,3-d]pyrimidine-6-carboxamide] was tested, and the IC50 (CDK4/cyclin D1; [2]) was 0.005 µM, the IC50 (CDK1/cyclin B; […] CDK1/cyclin B) was 2.51 µM and the IC50 [1, 3] was 0.011 µM. The IC50 [1, 4] was 0.007 µM.
`CN(C)C(=O)c1cc2cnc(Nc3ccc(C(=O)N4CC5CC5(N)C4)cn3)nc2n1C1CCCC1` (racemic) [Example 14, 2-[5-(1-Amino-3-aza-bicyclo[3.1.0]hexane-3-carbonyl)-pyridin-2-ylamino]-7-cyclopentyl-7H-pyrrolo[2,3-d]pyrimidine-6-carboxylic acid dimethylamide] was tested, and the IC50 (CDK4/cyclin D1; [2]) was 0.019 µM, the IC50 (CDK1/cyclin B; […] CDK1/cyclin B) was > 15 µM and the IC50 [1, 3] was 0.371 µM. The IC50 [1, 4] was 0.133 µM.
In the case of `CN(C)C(=O)c1cc2cnc(Nc3ccc(C(=O)N4C[C@H]5CNC[C@@H](C4)C5O)cn3)nc2n1C1CCCC1` (stereo partly drawn) [Example 1, 7-Cyclopentyl-2-(5-((1R,5S)-9-hydroxy-3,7-diazabicyclo[3.3.1]nonane-3-carbonyl)pyridin-2-ylamino)-N,N-dimethyl-7H-pyrrolo[2,3-d]pyrimidine-6-carboxamide], the IC50 (CDK4/cyclin D1; [2]) is reported as 0.017 µM, the IC50 (CDK1/cyclin B; […] CDK1/cyclin B) is reported as > 15 µM and the IC50 [1, 5] is reported as 0.538 µM. The IC50 [1, 6] was 0.364 µM.
`CN(C)C(=O)c1cc2cnc(Nc3ccc(C(=O)N4CC5CCC(C4)N5C(=O)CN)cn3)nc2n1C1CCCC1` [Example 60, 2-{5-[8-(2-Amino-acetyl)-3,8-diaza-bicyclo[3.2.1]octane-3-carbonyl]-pyridin-2-ylamino}-7-cyclopentyl-7H-pyrrolo[2,3-d]pyrimidine-6-carboxylic acid dimethylamide] was tested, and the IC50 (CDK4/cyclin D1; [2]) was 0.019 µM, the IC50 (CDK1/cyclin B; […] CDK1/cyclin B) was > 15 µM and the IC50 [1, 5] was 0.047 µM. The IC50 [1, 6] was 0.021 µM.
